# Source: patent US10953027B2, “Active agents and methods of their use for the treatment of metabolic disorders and nonalcoholic fatty liver disease” (Flagship Pioneering Innovations V, Inc., priority 2018, dated 2021)
# Columns and labels:
# Male DIO mice = assay: In vivo evaluation for glucose disposal and lipidemia in DIO mice (Example 11); conditions: for Fasting blood glucose levels (time 0 from OGTT): 28 days, 16 hour fast; for glucose AUC (0-120 min): OGTT day 28, glucose 2.0 g/kg PO
# Procedure: The DIO mice were prepared by feeding male C57BL/6 mice a high fat diet (HFD, Research Diets D12492) from 6-14 weeks of age. DIO mice were housed individually and maintained on the HFD through the duration of study. A twelve-hour light cycle was maintained with room temperature maintained at 22-25° C. All of the mice were acclimated to the facility for 5 days prior to starting the study.
# Following 5 days of facility acclimation, DIO mice were randomized into 8 groups of 10 based on body weight and blood glucose for assignment to treatment, as shown in Table 9:
# All treatments were administered admixed in HFD (Research Diets, New Brunswick N.J.) and were provided ad libitum for 30 days. Drinking water for group 7 was supplemented with 1, 3 Butanediol at 3% concentration.
# Body weight was recorded at baseline and twice weekly thereafter. Feed and water intakes were recorded each Monday, Wednesday, and Friday.
# Blood samples (<3 μL) were obtained one hour post dose by tail clip at baseline and weekly thereafter for measurement of fed blood glucose by StatStrip. Additional anti-coagulated blood samples (100 μl, EDTA di-potassium salt) were obtained by tail clip one hour post-dose at baseline, day 14 and day 30. Anti-coagulated samples were quick frozen and stored on dry ice.
# Animals were subjected to a 16 hour fast for performance of an oral glucose tolerance test (OGTT) on day 28. Blood samples were obtained via tail clip just prior to (8 am) and 15, 30, 60, 90, and 120 minutes post-glucose load (2.0 g/kg, PO) for assay of whole blood glucose (StatStrip). Feed was returned following last sample.
# Animals were terminated on day 30-31 using CO2 inhalation and induction of pneumothorax. Terminal blood samples were obtained by cardiac puncture. Whole blood was processed to serum and analyzed for serum cholesterol, triglycerides, high density lipoprotein (HDL), low density lipoprotein (LDL) and non-esterified fatty acids (NEFA) using AU480 clinical analyzer.
# Organ weights (liver, spleen, subcutaneous fat, inguinal fat, abdominal fat, and epididymal fat) were recorded. Sections of each fat were frozen or fixed in 4% paraformaldehyde/PBS, pH 6.9; Fat samples were placed on dry ice. Fixed liver samples (4% paraformaldehyde) were sent to Premier Laboratories for H&E staining and scoring for steatosis, inflammation and fibrosis. Spleen samples were prepared in ice cold 5% bovine serum albumin (BSA) in PBS or 4% paraformaldehyde. Sections of brain, heart, lung, and small and large intestine were fixed in 10% formalin.
# All data are represented as group mean±SEM. Data were analyzed using JMP (SAS software). All normalizations were calculated using terminal body weight.
# Baseline differences among groups were identified using Tukey-Kramer Hsd<0.05. Treatment effects compared to control were determined using Oneway ANOVA (*, p<0.05) followed by Dunnett's test where appropriate.
# [1] = Assay 1. Stability in Simulated Gastric Fluid (SGF); format: in vitro ADME; conditions: 1 μM, 37° C., SGF pH 1.6 with pepsin
# Summary of the method: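 Acylated compounds at a final 1 μM (diluted from 1 mM DMSO stock) were incubated at 37 °C in SGF of pH 1.6 NaCl buffer with FaSSIF powder and 0.1 mg/mL pepsin. Aliquots were quenched with acetonitrile at T0 and regular intervals, and degradation rates were determined by LC/MS.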
# [2] = Assay 2. Stability in Simulated Intestinal Fluid (SIF); format: in vitro ADME; conditions: 1 μM, 37° C., SIF pH 6.7 with pancreatin
# Summary of the method: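 Acylated compounds at 1 μM (from 1 mM DMSO stock) in fresh SIF: FaSSIF with pancreatin in pH 6.7 phosphate buffer, agitated at 37 °C. Aliquots from T0 onward quenched with 1 volume acetonitrile; LC/MS gives degradation rates.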
# [3] = Assay 3. Fecal Incubation Stability; format: in vitro ADME; conditions: 1 or 10 μM, human fecal slurry, anaerobic
SMILES,Fasting blood glucose levels (time 0 from OGTT) (Male DIO mice; 0.6% in HFD) [mg/dL],glucose AUC (0-120 min) (Male DIO mice; 0.6% in HFD) [mg/dL/min],Fasting blood glucose levels (time 0 from OGTT) (Male DIO mice; 2% in HFD) [mg/dL],glucose AUC (0-120 min) (Male DIO mice; 2% in HFD) [mg/dL/min],Fasting blood glucose levels (time 0 from OGTT) (Male DIO mice; 6% in HFD) [mg/dL],glucose AUC (0-120 min) (Male DIO mice; 6% in HFD) [mg/dL/min],Assay 1 (SGF) (% Remaining @ 1 hours) [1],Assay 2 (SIF) (% @ Remaining 4 hours) [2],Assay 3 (% Remaining at 24 h) [3]
"O=C(CCCc1ccccc1)Oc1cc(OC(=O)CCCc2ccccc2)c2c(c1)O[C@H](c1cc(OC(=O)CCCc3ccccc3)c(OC(=O)CCCc3ccccc3)c(OC(=O)CCCc3ccccc3)c1)[C@H](OC(=O)c1cc(OC(=O)CCCc3ccccc3)c(OC(=O)CCCc3ccccc3)c(OC(=O)CCCc3ccccc3)c1)C2 [Compound 5, [(2R,3R)-5,7-bis(4-phenylbutanoyloxy)-2-[3,4,5-tris(4-phenylbutanoyloxy)phenyl]chroman-3-yl] 3,4,5-tris(4-phenylbutanoyloxy)benzoate]",107.3 ± 5.3,29628.0 ± 1791.7,104.7 ± 4.3,27648.8 ± 866.3,95.1 ± 4.4,26049.0 ± 455.4,–,–,–
"CC(=O)OC[C@H]1O[C@@H](OC(C)=O)[C@H](N)[C@@H](OC(C)=O)[C@@H]1OC(C)=O [Compound 194, (2S,3R,4R,5S,6R)-6-(acetoxymethyl)-3-aminotetrahydro-2H-pyran-2,4,5-triyl Triacetate]",–,–,–,–,–,–,C (C: >75% of the tested compound remaining),A (A: <25% of the tested compound remaining),C (C: >75% of the tested compound remaining)
"CC(=O)O[C@H]1O[C@H](C(=O)O)[C@@H](OC(C)=O)[C@H](OC(C)=O)[C@H]1OC(C)=O [Compound 195, (2S,3S,4S,5R,6R)-3,4,5,6-tetraacetoxytetrahydro-2H-pyran-2-carboxylic Acid]",–,–,–,–,–,–,C (C: >75% of the tested compound remaining),C (C: >75% of the tested compound remaining),B (B: 25-75% of the tested compound remaining)
"CCC(=O)Oc1ccc(-c2cc(=O)c3c(O)cc(OC(=O)CC)cc3o2)cc1 [Compound 199, 5-hydroxy-4-oxo-2-[4-(propanoyloxy)phenyl]-4H-chromen-7-yl Propanoate]",–,–,–,–,–,–,B (B: 25-75% of the tested compound remaining),A (A: <25% of the tested compound remaining),A (A: <25% of the tested compound remaining)
"CCCC(=O)Oc1ccc(-c2cc(=O)c3c(OC(=O)CCC)cc(OC(=O)CCC)cc3o2)cc1 [Compound 201, 5-(butanoyloxy)-2-[4-(butanoyloxy)phenyl]-4-oxo-4H-chromen-7-yl Butanoate]",–,–,–,–,–,–,B (B: 25-75% of the tested compound remaining),A (A: <25% of the tested compound remaining),A (A: <25% of the tested compound remaining)
"CCC(=O)Oc1ccc(-c2cc(=O)c3c(OC(=O)CC)cc(OC(=O)CC)cc3o2)cc1 [Compound 203, 4-oxo-7-(propanoyloxy)-2-[4-(propanoyloxy)phenyl]-4H-chromen-5-yl Propanoate]",–,–,–,–,–,–,C (C: >75% of the tested compound remaining),A (A: <25% of the tested compound remaining),B (B: 25-75% of the tested compound remaining)
"CCCC(=O)O[C@@H]1[C@@H](OC(=O)CCC)[C@H](Oc2ccccc2C(=O)O)OC[C@H]1OC(=O)CCC [Compound 227, 2-{[(2S,3R,4S,5R)-3,4,5-tris(butanoyloxy)oxan-2-yl]oxy}benzoic Acid]",–,–,–,–,–,–,C (C: >75% of the tested compound remaining),A (A: <25% of the tested compound remaining),A (A: <25% of the tested compound remaining)
"CCCC(=O)Oc1cc(OC(=O)CCC)c2c(c1)O[C@H](c1ccc(OC(=O)CCC)c(OC(=O)CCC)c1)[C@H](OC(=O)CCC)C2 [Compound 235, (2R,3R)-2-[3,4-bis(butanoyloxy)phenyl]-5,7-bis(butanoyloxy)-3,4-dihydro-2H-1-benzopyran-3-yl Butanoate]",–,–,–,–,–,–,C (C: >75% of the tested compound remaining),A (A: <25% of the tested compound remaining),A (A: <25% of the tested compound remaining)
"CCC(=O)Oc1cc(OC(=O)CC)c2c(c1)O[C@H](c1ccc(OC(=O)CC)c(OC(=O)CC)c1)[C@H](OC(=O)CC)C2 [Compound 236, (2R,3R)-2-[3,4-bis(propanoyloxy)phenyl]-5,7-bis(propanoyloxy)-3,4-dihydro-2H-1-benzopyran-3-yl Propanoate]",–,–,–,–,–,–,B (B: 25-75% of the tested compound remaining),A (A: <25% of the tested compound remaining),A (A: <25% of the tested compound remaining)
"O=C(Cc1c[nH]c2ccccc12)Oc1cc(C(=O)O)cc(OC(=O)Cc2c[nH]c3ccccc23)c1OC(=O)Cc1c[nH]c2ccccc12 [Compound 237, 3,4,5-tris({[2-(1H-indol-3-yl)acetyl]oxy})benzoic Acid]",–,–,–,–,–,–,C (C: >75% of the tested compound remaining),A (A: <25% of the tested compound remaining),A (A: <25% of the tested compound remaining)
"CCC(=O)Oc1cc(C(=O)O)cc(OC(=O)CC)c1OC(=O)CC [Compound 239, 3,4,5-tris(propanoyloxy)benzoic Acid]",–,–,–,–,–,–,C (C: >75% of the tested compound remaining),A (A: <25% of the tested compound remaining),A (A: <25% of the tested compound remaining)
"CCCC(=O)O[C@@H]1[C@H](OC(=O)CCC)C=C(C(=O)O)C[C@H]1OC(=O)CCC [Compound 255, (3R,4S,5R)-3,4,5-tris(butanoyloxy)cyclohex-1-ene-1-carboxylic Acid]",–,–,–,–,–,–,C (C: >75% of the tested compound remaining),C (C: >75% of the tested compound remaining),B (B: 25-75% of the tested compound remaining)
"C[C@@H]1CCO[C@](C)(C(=O)Oc2ccc(/C=C/c3cc(OC(=O)[C@@]4(C)OCC[C@@H](C)O4)cc(OC(=O)[C@@]4(C)OCC[C@@H](C)O4)c3)cc2)O1 [Compound 257, 3-[(2S,4R)-2,4-dimethyl-1,3-dioxane-2-carbonyloxy]-5-[(1E)-2-{4-[(2S,4R)-2,4-dimethyl-1,3-dioxane-2-carbonyloxy]phenyl}ethenyl]phenyl (2S,4R)-2,4-dimethyl-1,3-dioxane-2-carboxylate]",–,–,–,–,–,–,C (C: >75% of the tested compound remaining),A (A: <25% of the tested compound remaining),A (A: <25% of the tested compound remaining)
"O=C(CCc1c[nH]c2ccccc12)Oc1ccc(/C=C/c2cc(OC(=O)CCc3c[nH]c4ccccc34)cc(OC(=O)CCc3c[nH]c4ccccc34)c2)cc1 [Compound 259, 4-[(1E)-2-[3,5-bis({[3-(1H-indol-3-yl)propanoyl]oxy})phenyl]ethenyl]phenyl 3-(1H-indol-3-yl)propanoate]",–,–,–,–,–,–,C (C: >75% of the tested compound remaining),C (C: >75% of the tested compound remaining),B (B: 25-75% of the tested compound remaining)
